Laboratory results as given in patent publication US7439024B2, “Methods and kits for diagnosing or monitoring autoimmune and chronic inflammatory diseases” (The United States of America as represented by the …, priority 2005, dated 2008).

Key:
CD70 [1] = conditions: PHA-stimulated purified T cells, 3 days after treatment, oligonucleotide arrays, 2 independent experiments, mean±SEM
CD70 mRNA = experiment: Real time RT-PCR of CD70 transcripts relative to β-actin in drug-treated T cells; format: cell-based, human; conditions: for CD70 transcripts relative to β-actin, normalized to the untreated control: CD4+ T cells stimulated with anti-CD3 + anti-CD28, 5 μm 5-azaC, 50 μm Pca, 20 μm Hyd, 40 μm U0126 or 25 μm PD98059 for 3 days, FIG. 9; for expression of CD70 mRNA relative to that of beta-actin vs untreated cells: T cells, real time RT-PCR, FIG. 1B
Description: Cells and cell culture. Peripheral blood mononuclear cells (PBMCs) were isolated by density-gradient centrifugation. T cells were then isolated by E-rosetting (See, e.g., Golbus et at., Clin Immunol Immunopathol 46, 129 (1988)). […] Where indicated, the cells were cultured in RPMI 1640/10% fetal calf serum (FCS) supplemented with interleukin-2 (IL-2) (See, e.g., Richardson et at., Clin Immunol Immunopathol 55, 368 (1990)), in round-bottomed 5-ml culture tubes (FALCON). Cells were stimulated with 1 μg/ml of PHA (REMEL) for 16 hours, then cultured in 24-well plates at a density of 1×10^6 for an additional 72 hours in the presence of 2-deoxy-5-azaC or 5-azaC (SIGMA-ALDRICH), procainamide (SIGMA-ALDRICH), hydralazine (SIGMA-ALDRICH), or the MEK inhibitors U0126 (PROMEGA) or PD98059 (PROMEGA […]). In other studies, PHA-stimulated PBMCs were cultured in RPMI 1640/10% FCS and treated with indomethacin, chloroquine, hydrocortisone, and 6-mercaptopurine (6-MP) (all from SIGMA-ALDRICH). TT48E, a cloned, CD4+, tetanus toxoid-reactive human T cell line, was cultured as previously described (Comacchia et al., J Immunol 140, 2197 (1988); Richardson et al., Arthritis Rheum 35, 647 (1992)).
(§1) In other studies, T cells were isolated by negative selection using magnetic beads and instructions provided by the manufacturer (Pan T cell Isolation Kit, Miltenyi), and the CD4+ or CD8+ subset was similarly isolated by magnetic cell sorting. […] Purified human CD4+ T cells were first stimulated with plate bound anti-CD3 and soluble anti-CD28.

autologous B cells = experiment: T cell and B cell costimulation assay, IgG ELISA of supernatants; format: cell-based, human; conditions: P<0.05; for IgG produced by B cells cultured with drug-treated cloned T cells vs untreated T cells: TT48E cloned CD4+ T cell line treated 3 days, autologous B cells, without PWM, FIG. 4; for IgG secreted by B cells cultured with drug-treated T cells vs same numbers of untreated T cells: unfractionated PHA-stimulated T cells treated 3 days, cultured with PWM and autologous B cells 8 days, FIG. 3
Description: T cell and B cell costimulation assays. E-rosette-purified T cells were stimulated for 16 hours with PHA and then treated with the indicated chemicals for an additional 72 hours as described above. Where indicated, T cell subsets were isolated by negative selection using magnetic beads (Miltenyi). B cells (1-4×10^5) enriched by negative selection using magnetic beads (Miltenyi) and assessed to be 70-85% pure using PE-conjugated anti-human CD21 (PHARMINGEN), were added to washed, drug-treated autologous T cells, at T cell to B cell ratios of 4:1, 2:1, 1:1, 1:2, and 1:4. Where indicated, 0.625 μg/ml of PWM (ALDRICH) was added. The cells were cultured in RPMI 1640/10% FBS/penicillin/streptomycin for 8 days in 96-well roundbottomed plates (Costar) containing a 200 μl total volume (performed in duplicate). Cells were supplemented with 50 μl of medium on day 4. Where indicated, 1 μg/ml of anti-CD70 monoclonal antibody (HNE51) (DAKO) was added to the cultures. TT48E cells were similarly stimulated with PHA (1 μg/ml) for 18 hours, treated with the indicated drugs for 3 days, then similarly cultured with autologous B cells for 8 days. Where indicated, the TT48E cells were pretreated with 1 μg/ml of anti-CD70 for 30 minutes at […], then washed and added to the B cells, according to protocols described by others (See, e.g., Kobata et at., Proc Natl Acad Sci U S A 92, 11249 (1995)).
IgG enzyme-linked immunosorbent assays (ELISAs). IgG was measured in the supernatants of the T cell-B cell cultures (See, e.g., Richardson et al., Clin Immunol Immunopathol 55, 368 (1990)). Briefly, 96-well flatbottomed polystyrene plates (Costar) were coated with 1 μg/ml of goat anti-human IgG (Southern Biotech) and washed. Unreacted combining sites were sealed with 3% bovine serum albumin (BSA) in phosphate buffered saline (PBS) by incubation at 4° C. for 16 hours. Pooled supernatants from duplicate wells were diluted 1:5 in PBS/1% BSA, and 50 μl was added to the wells. Serial dilutions of purified human IgG (Sigma) were used for quantitation. Following incubation and washing, goat anti-human IgG conjugated with horseradish peroxidase (Southern Biotech) was added, and cells were incubated for 2 hours at room temperature. The wells were washed 3 times with PBS/0.1% Tween 20, and color was developed using Sigma Fast tablets. The plates were read at 405 nm using a SpectraMax spectrophotometer (Molecular Devices). All determinations were performed in quadruplicate.
Since CD70 participates in T cell-dependent B cell stimulation (See e.g., Kobata et al., Proc Natl Acad Sci USA 92, 11249 (1995)), the effects of DNA methylation inhibitors on CD70-dependent B cell help were examined. […] Eight days later, total IgG in the supernatants was measured by ELISA. […]

CD70 promoter = experiment: Bisulfite sequencing of the CD70 promoter in drug-treated CD4+ T cells; format: cell-based, human; conditions: for methylation of the 10 CG pairs in the CD70 promoter region between −515 and −423: CD4+ T cells stimulated with anti-CD3 and anti-CD28, vs stimulated untreated controls, FIGS. 13, 14
Description: as §1
Bisulfite sequencing. The putative CD70 promoter was identified using the published CD70 cDNA sequence and Tfsitescan software. Deoxycytosine (dC) and deoxymethylcytosine (d^mC) bases in the gene promoter and 5′ flanking sequences were identified by bisulfite treatment of purified DNA followed by nested PCR amplification of 3 sequential fragments to span the entire region. The primers were designed to avoid CG pairs and to account for the conversion of dC to dU by the bisulfite. EcoRI sites were added to the forward primers, and XbaI to the reverse, to facilitate cloning. The amplified fragments were then cloned into PBS+, and 5 clones sequenced for each fragment. The primers used were: […]
The effect of lupus and DNA methylation inhibitors on a regulatory element in the CD70 promoter was examined. DNA was isolated from the CD4+ T cells of 7 healthy individuals or 6 lupus patients, bisulfite treated, the region from −466-−515, containing 6 CG pairs was amplified by PCR, and 5 fragments sequenced from each individual. The average methylation status of the 6 CG pairs for healthy versus lupus individuals is shown (FIG. 8, NI and Lupus, respectively). CD4+ T cells from 5 individuals were also stimulated with PHA, treated with the irreversible DNA methyltransferase inhibitor 5-azacytidine (5-azaC), and the methylation status of the 6 CG pairs similarly analyzed from the 25 fragments sequenced (FIG. 8, 5-azaC). […] Results are presented as the mean±SEM of the average methylation of the 6 CG pairs, measured from the 10-35 determinations/group.
The effects of the DNA methylation inhibitors on the methylation status of this region were then compared. […] Again, 5 cloned fragments were sequenced from each control, for a total of 35 determinations per CG pair. […] FIG. 14 compares the average methylation for the 10 CG pairs (−515 to −423) in the T cells treated with DNA methylation inhibitors relative to stimulated, untreated controls.

CD70 [2] = experiment: Flow cytometric analysis of CD70 expression on T cells treated with DNA methylation inhibitors; format: cell-based, human; conditions: for increase of CD70 expression on T cell clone TT48E: 3 days, 6 serial experiments; for increase of CD70 MFI on CD4+ T cells: CD4+ T cell subset; for CD70 expression on PHA-stimulated T cells, treated vs untreated: polyclonal T cells, 1 μM 5-azaC 3 days, procainamide increasing dosage, 25 μM PD98059 and dose response, 40 μM U0126 and dose response, FIG. 2; for CD70 expression on CD4+ T cells: summary statement in Example 8
CD70 [3] = experiment: CD70 expression on CD4+ cells of PBMCs cultured with medications commonly used to treat lupus (flow cytometry); format: cell-based, human; conditions: PBMCs with or without PHA, 24 hours, graded concentrations 1-100 μM

Nc1ncn([C@H]2C[C@H](O)[C@@H](CO)O2)c(=O)n1 [2-deoxy-5-azaC]
CD70 expression increase in treated cells relative to untreated controls (CD70 [1]): 2.6±0.6 fold

N#CC(=C(/N)Sc1ccccc1N)/C(C#N)=C(\N)Sc1ccccc1N [U0126]
CD70 transcripts relative to β-actin, normalized to the untreated control (CD70 mRNA): increase CD70 transcripts | expression of CD70 mRNA relative to that of beta-actin vs untreated cells (CD70 mRNA): increased the expression of CD70 mRNA | IgG produced by B cells cultured with drug-treated cloned T cells vs untreated T cells (autologous B cells): greater amounts of IgG | IgG secreted by B cells cultured with drug-treated T cells vs same numbers of untreated T cells (autologous B cells): greater amounts of IgG | methylation of the 10 CG pairs in the CD70 promoter region between −515 and −423 (CD70 promoter): appears to demethylate | increase of CD70 expression on T cell clone TT48E (CD70 [2]; 40 μM, P=0.004): 1.87±0.37 fold | increase of CD70 MFI on CD4+ T cells (CD70 [2]; 40 μM, P=0.039, n=4): 3.20±0.44 fold | increase of CD70 MFI in T cells treated with U0126 (FIG. 2I) (CD70 [2]; P=0.085, stated in the passage on the smaller CD8+ increase): 2.83±0.95 fold | CD70 expression on PHA-stimulated T cells, treated vs untreated (CD70 [2]): increase in CD70 expression with treatment | CD70 expression on CD4+ T cells (CD70 [2]): increased CD70 expression

COc1cccc(-c2cc(=O)c3ccccc3o2)c1N [PD98059]
CD70 transcripts relative to β-actin, normalized to the untreated control (CD70 mRNA): increase CD70 transcripts | methylation of the 10 CG pairs in the CD70 promoter region between −515 and −423 (CD70 promoter): appears to demethylate | increase of CD70 MFI on CD4+ T cells (CD70 [2]; 25 μM, P=0.032, n=3): 1.63±0.43 fold | CD70 expression on PHA-stimulated T cells, treated vs untreated (CD70 [2]): increase in CD70 expression with treatment | CD70 expression on CD4+ T cells (CD70 [2]): increased CD70 expression

Nc1ncn([C@@H]2O[C@H](CO)[C@@H](O)[C@H]2O)c(=O)n1 [5-azaC, 5-azacytidine]
CD70 transcripts relative to β-actin, normalized to the untreated control (CD70 mRNA): increase CD70 transcripts | expression of CD70 mRNA relative to that of beta-actin vs untreated cells (CD70 mRNA): increased the expression of CD70 mRNA | IgG produced by B cells cultured with drug-treated cloned T cells vs untreated T cells (autologous B cells): greater amounts of IgG | IgG secreted by B cells cultured with drug-treated T cells vs same numbers of untreated T cells (autologous B cells): greater amounts of IgG | CD70 expression increase in treated cells relative to untreated controls (CD70 [1]): > 2 fold | methylation of the 10 CG pairs in the CD70 promoter region between −515 and −423 (CD70 promoter): hypomethylated compared to controls | increase of CD70 expression on T cell clone TT48E (CD70 [2]; 1 μM, P=0.048): 1.69±0.33 fold | increase of CD70 MFI on CD4+ T cells (CD70 [2]; 1 μM, P=0.025, n=5): 1.53±0.45 fold | CD70 expression on PHA-stimulated T cells, treated vs untreated (CD70 [2]): small increase | concentration producing the greatest effect on CD70 expression (CD70 [2]; range of 5-azaC concentrations, P=0.001 overall, n=5 experiments, FIG. 2B): 1 µM | CD70 expression on CD4+ T cells (CD70 [2]): increased CD70 expression

COc1ccc2c(c1)c(CC(=O)O)c(C)n2C(=O)c1ccc(Cl)cc1 [indomethacin]
CD70 expression on stimulated or unstimulated CD4+ cells (CD70 [3]): No increase in CD70 expression

C[C@]12CCC(=O)C=C1CC[C@@H]1[C@@H]2[C@@H](O)C[C@@]2(C)[C@H]1CC[C@]2(O)C(=O)CO [hydrocortisone]
CD70 expression on stimulated or unstimulated CD4+ cells (CD70 [3]): No increase in CD70 expression

Sc1ncnc2nc[nH]c12 [6-MP, 6-mercaptopurine]
CD70 expression on stimulated or unstimulated CD4+ cells (CD70 [3]): No increase in CD70 expression

CCN(CC)CCCC(C)Nc1ccnc2cc(Cl)ccc12 (stereo not drawn) [chloroquine]
CD70 expression on stimulated or unstimulated CD4+ cells (CD70 [3]): No increase in CD70 expression

CCN(CC)CCNC(=O)c1ccc(N)cc1 [procainamide]
CD70 transcripts relative to β-actin, normalized to the untreated control (CD70 mRNA): increase CD70 transcripts | methylation of the 10 CG pairs in the CD70 promoter region between −515 and −423 (CD70 promoter): appears to demethylate | methylation status of the CD70 promoter region from −466-−515 containing 6 CG pairs (CD70 promoter; PHA-stimulated CD4+ T cells, FIG. 8): demethylate this region | CD70 expression on PHA-stimulated T cells, treated vs untreated (CD70 [2]): increase in the ratio of the mean fluorescence intensity (MFI) of CD70 expression | CD70 expression on CD4+ T cells (CD70 [2]): increased CD70 expression
